# Values quoted from earlier work, collected in US20050150424A1, “Ink composition and inkjet recording method” (FUJI PHOTO FILM CO., LTD., priority 2003, published 2005).
# Read-outs that look alike come from different tables or passages of the source.
# Conditions: in water at 25° C.
pKa (Table 4),SMILES,pKa
–,C=C(C)C(=O)OCCOP(=O)(O)O [ethylene glycol methacrylate phosphate],2.5
–,C=C(C)C(=O)OCCOC(=O)c1ccccc1C(=O)O [2-methacryloyloxyethyl phthalate],4.0
–,C=C(C)C(=O)O [methacrylic acid],3.6
2-Ethylhexanoic acid (pKa: 4.1),CCCCC(CC)C(=O)O (centres unmarked) [2-Ethylhexanoic acid],–
–,C=CC(=O)O [acrylic acid],3.6
